Experimental data taken from PubChem BioAssay AID652241 (Broad Institute, 2013).
Records with an inconclusive call do not appear. Active and inactive are the calls of the source.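 Rule for the calls: active = fitted curve reaches activity 50 in the expected rising direction at or below the top valid tested dose; inconclusive = no clear call, values can overlap the other calls; inactive = activity in the wrong direction, and the rest.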

Target: Virion infectivity factor (Human immunodeficiency virus type 1 group M subtype B (isolate BH10)) + Virion infectivity factor (Human immunodeficiency virus type 1 group M subtype B (isolate BRU/LAI)) + Virion infectivity factor (Human immunodeficiency virus type 1 group M subtype B (isolate PCV12)) + Virion infectivity factor (Human immunodeficiency virus type 1 group M subtype B (isolate HXB2)) (UniProt P69720+P69721+P69722+P69723)
Experiment: dose-dependent disruption of HIV Vif self-association – imaging, HEK293T, cherry-picks, dose response (AID 652241);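 note: imaged cell signal that rises when Vif self-association is disrupted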
Conditions: HEK293T Vif multimerization imaging, 24 h

Virion infectivity factor (Human immunodeficiency virus type 1 group M subtype B (isolate BH10)) + Virion infectivity factor (Human immunodeficiency virus type 1 group M subtype B (isolate BRU/LAI)) + Virion infectivity factor (Human immunodeficiency virus type 1 group M subtype B (isolate PCV12)) + Virion infectivity factor (Human immunodeficiency virus type 1 group M subtype B (isolate HXB2)), sequence (P69720 whole entry, looked up): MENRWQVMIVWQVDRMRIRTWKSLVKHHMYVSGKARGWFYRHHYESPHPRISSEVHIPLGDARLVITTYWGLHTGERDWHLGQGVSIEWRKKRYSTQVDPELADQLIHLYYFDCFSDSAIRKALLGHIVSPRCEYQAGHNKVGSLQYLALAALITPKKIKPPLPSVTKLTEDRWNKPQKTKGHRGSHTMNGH
Virion infectivity factor (Human immunodeficiency virus type 1 group M subtype B (isolate BH10)) + Virion infectivity factor (Human immunodeficiency virus type 1 group M subtype B (isolate BRU/LAI)) + Virion infectivity factor (Human immunodeficiency virus type 1 group M subtype B (isolate PCV12)) + Virion infectivity factor (Human immunodeficiency virus type 1 group M subtype B (isolate HXB2)), sequence (P69721 whole entry, looked up): as the sequence (P69720 whole entry, looked up) above
Virion infectivity factor (Human immunodeficiency virus type 1 group M subtype B (isolate BH10)) + Virion infectivity factor (Human immunodeficiency virus type 1 group M subtype B (isolate BRU/LAI)) + Virion infectivity factor (Human immunodeficiency virus type 1 group M subtype B (isolate PCV12)) + Virion infectivity factor (Human immunodeficiency virus type 1 group M subtype B (isolate HXB2)), sequence (P69722 whole entry, looked up): as the sequence (P69720 whole entry, looked up) above
Virion infectivity factor (Human immunodeficiency virus type 1 group M subtype B (isolate BH10)) + Virion infectivity factor (Human immunodeficiency virus type 1 group M subtype B (isolate BRU/LAI)) + Virion infectivity factor (Human immunodeficiency virus type 1 group M subtype B (isolate PCV12)) + Virion infectivity factor (Human immunodeficiency virus type 1 group M subtype B (isolate HXB2)), sequence (P69723 whole entry, looked up): as the sequence (P69720 whole entry, looked up) above

Structure (SMILES)	AC50
Cc1nn(Cc2c(Cl)cccc2Cl)c(C)c1NC(=O)c1cnn2c(C(F)F)cc(-c3ccccc3)nc12	16.5 µM
COc1ccc(NC(=O)Cn2ncc(Cl)c(Cl)c2=O)cc1S(=O)(=O)N1CCOCC1	> 19.5 µM (inactive)
COc1ccc(/C=C/C(=O)c2cc(F)ccc2OC(=O)c2ccccc2OC)cc1OC	1.33 µM
Cn1c(=O)[nH]c(=O)c2c1nc([N+](=O)[O-])n2Cc1ccccc1	5.03 µM
COc1ccc(-c2cc(C(F)(F)F)nc(S(C)(=O)=O)n2)cc1OC	8.03 µM
O=C(COc1ccc(-n2cnnn2)cc1)Nc1cc(Cl)cc(Cl)c1	12.1 µM
Cc1cc(NC(=O)CSc2nc3c(sc4ccccc43)c(=O)n2CCCN2CCOCC2)n[nH]1	7.05 µM
CC(=O)Nc1ccc(-c2ccnc3c2CC(C(=O)NCc2ccccc2)O3)cc1 (stereo not given)	1.28 µM
CCOC(=O)c1[nH]c2c(c1C)C(=O)CC(c1ccco1)C2 (stereo not given)	5.79 µM
Cn1nnnc1Sc1ncnc2scc(-c3ccc(Cl)cc3)c12	3.75 µM
O=C(NCc1ccccc1C(F)(F)F)c1cccc2c1C(=O)c1ccc(N3CCCCC3)cc1S2(=O)=O	14.1 µM
COCCNC(=O)c1nn2c(C(F)(F)F)cc(-c3ccccc3)nc2c1Cl	> 19.5 µM (inactive)
COc1ccc(-c2cc(C(=O)Nc3cnn(Cc4ccccc4C)c3)no2)cc1OC	16.3 µM
COc1ccc(-c2ccc3c(N)c(C(=O)c4ccc(OC)c(OC)c4)sc3n2)cc1	> 19.5 µM (inactive)
COc1ccc(-n2nc(C(=O)NCC(=O)Nc3cccc(Cl)c3)c3ccccc3c2=O)cc1OC	8.05 µM
COc1cc(C2c3cc4c(cc3CC3COC(=O)C32)OCO4)cc(OC)c1OC (stereo not given)	9.81 µM
CCN(CC)C(=O)c1sc2nc(-c3cccs3)cc(-c3cccs3)c2c1N	> 19.5 µM (inactive)
COc1cccc(-c2cc(NC=O)c3ncc(-c4cc(OC)c(OC)c(OC)c4)n3c2)c1	4.25 µM
NC(CCc1ccccc1)c1csc(Nc2ccc(C(=O)c3ccccc3)cc2)n1 (stereo not given)	10.2 µM
Cc1cnc(NC(=O)CN2CCN(c3ccccn3)CC2)s1	9.23 µM

Same assay, conditions: HEK293T Vif multimerization imaging, 24 h; at 6.8 µM (top of the series)

Structure (SMILES)	activity, higher = inhibition
COc1ccc(OC)c(/C=C/c2nc3ccccc3[nH]c2=O)c1	inactive
COc1ccc(-c2nc(CS(=O)(=O)CC(=O)NCCc3ccccc3)c(C)o2)cc1	inactive
COc1cc(Nc2nc3ccccc3n3nnnc23)cc(OC)c1OC	inactive
N#Cc1cc2c(=O)n3ccccc3nc2n(-c2ccccc2Cl)c1=O	inactive
Oc1[nH]c(=S)sc1/C=C1\C(c2ccccc2)=Nc2ccccc21	inactive
O=C(Nc1ccc2oc(-c3ccc4ccccc4c3)nc2c1)c1cccs1	inactive
CCc1cccc2cc3c(N)c(C(=O)Nc4ccc(S(=O)(=O)N5CCCC5)cc4)sc3nc12	inactive

Same assay, conditions: HEK293T Vif multimerization imaging, 24 h; at 19.5 µM (top of the series)

Structure (SMILES)	activity, higher = inhibition
CCOc1ccc(C(C)=O)cc1COC(=O)c1cc([N+](=O)[O-])ccc1N1CCOCC1	inactive
COC(=O)c1cc(Cl)c(NC(=O)c2cc3ccccc3o2)cc1OC	inactive
CC(=O)Nc1ccc(C2(c3ccc(NC(C)=O)cc3)NC(=O)c3ccccc32)cc1	inactive
COc1ccc(CC(NC(C)=O)C(=O)NC2CCN(C(=O)c3ccccc3F)CC2)cc1 (stereo not given)	inactive
Cc1ccnc(SCC(=O)n2c3c(c4ccccc42)CC(C)CC3)n1 (stereo not given)	inactive
Cc1cc(C)c(S(=O)(=O)N2CCN(S(=O)(=O)N3CCOCC3)CC2)c(C)c1	inactive
COc1cc(C(C)=O)ccc1OCC(=O)NCC1(N2CCCCC2)CCCCC1	inactive
O=C(Cc1ccccc1)OCC(=O)c1ccc(F)cc1	inactive
CCc1cc2c(Sc3nc4ccccc4s3)ncnc2s1	inactive
C/C=C/c1ccc(OCCNCc2ccccc2)c(OC)c1	inactive
O=C1/C(=C/c2ccc(N3CCCC3)cc2)NC(=S)N1C1CC1	inactive
COc1cc(-c2cc(=O)c3c(O)c(OC)c(OC)cc3o2)cc(OC)c1O	inactive
COc1cccc(CNc2ccc3c(c2)CCC3)c1	inactive
Cc1nn(C)cc1CN(C)Cc1ccc(OCC(O)CN2CCCCC2)cc1 (stereo not given)	inactive
CCOc1ccc(CC(=O)Nc2sc(Cc3ccccc3)c(C)c2C(N)=O)cc1OCC	inactive
CCOC(=O)Nc1ccc(NCc2ccc(F)cc2)nc1N	inactive
CCOC(=O)c1c(C)[nH]c(-c2csc(N)n2)c1C	inactive
O=C(CCc1ccccc1)Nc1ccccc1	inactive
O=C(NCc1ccccn1)c1ccc(Cn2c(=S)[nH]c3ccc(Br)cc3c2=O)cc1	inactive
O=S(=O)(Nn1cnnc1)c1ccccc1	inactive
CCC(C)n1c(-c2cccs2)nc2nc3ccccc3nc21 (stereo not given)	inactive
NCCCC[C@H](N[C@@H](CCc1ccccc1)C(=O)O)C(=O)N1CCC[C@H]1C(=O)O	inactive

Structure (SMILES)	activity, higher = inhibition
CC(C)CC(NC(=O)C1CCCCC1)C(=O)N1CCC2(CC1)OCCO2 (stereo not given)	inactive
CCn1cc(CN2CCCC(C(=O)Nc3cccc(-c4cc5ccccc5[nH]4)c3)C2)c(C)n1 (stereo not given)	inactive
O=C(O)c1ccc(S(=O)(=O)c2ccc3c(c2)C(=O)N(c2ccc(Br)cc2)C3=O)cc1	inactive
COc1ccc(CC(=O)OCC(=O)Nc2cccc(Br)c2)cc1	inactive
O=C(Nc1ccnc(-c2cccnc2)n1)c1cccs1	inactive
N#CC(C(=O)NCCc1ccccc1)c1nc2ccccc2nc1N1CCOCC1 (stereo not given)	inactive
Nc1nc(-c2ccc3ccccc3c2)cs1	inactive
O=C(NC1CCCc2ccccc21)c1ccccc1Br (stereo not given)	inactive
COc1ccc(C(=O)Nc2cc(OC)c(NC(=O)Nc3ccccc3)cc2OC)cc1	inactive
Cc1nc(-c2ccccc2OC(F)(F)F)[nH]c(=O)c1Cl	inactive
COC(=O)N1C(=O)[C@](c2ccc(Cl)cc2)(C(C)C)N1C(=O)OC	inactive
CN(C)C(=O)c1cc(Br)ccc1Cl	inactive
CCC(=O)N(CCC1(C(C)C)CCOC(C)(C)C1)Cc1ccco1 (stereo not given)	inactive
CCOC(=O)C1(Cc2ccccc2)CCN(Cc2csc(C(C)=O)c2)CC1	inactive
CCOc1nc(N2CCCCC2)nc(-n2cc(-c3ccccc3)nn2)n1	inactive
COCCN(C(=O)COC(=O)Cc1ccc(Cl)cc1)c1c(N)n(Cc2ccccc2)c(=O)[nH]c1=O	inactive
N#Cc1c(-c2ccccc2)cc(C2CC2)nc1SCC(=O)c1cccs1	inactive
COc1ccc(CNC(=O)CN2C(=O)NC(c3ccccc3)(c3ccccc3)C2=O)cc1	inactive
O=C(c1cc(Cl)c(=O)n(Cc2ccccc2)c1)N1CCOCC1	inactive
Cc1cccc(C)c1NC(=O)COc1ccc2c(C)c(Cc3ccccc3)c(=O)oc2c1C	inactive
CCCn1c(=N)c(C(=O)NCc2ccc3c(c2)OCO3)cc2c(=O)n3cccc(C)c3nc21	inactive
